Measured values: patent US8188102B2, “Amide derivative for inhibiting the growth of cancer cells” (Hanmi Holdings Co., Ltd., priority 2007, dated 2012)

Experiments:
[1] = system: A431 skin cancer cell line; assay: Cancer cell growth inhibition, A431 (SRB); details: Homo sapiens, A-431, 72 h, read-out: ID50 (nM) A431
[2] = system: SK-Br3 breast cancer cell line; assay: Cancer cell growth inhibition, SK-Br3 (SRB); details: Homo sapiens, SK-BR-3, 72 h, read-out: ID50 (nM) SK-Br3

Row | Structure (SMILES) | IC50 [1] [nM] | IC50 [2] [nM]
1 | C=CC(=O)N1CC(Oc2cc3c(Nc4cccc(C#N)c4)ncnc3cc2OC)C1 [Example 27, 3-(6-(1-acryloylazetidin-3-yloxy)-7-methoxyquinazolin-4-ylamino)benzonitrile] | 17 | 3
2 | CNC(=O)/C=C/C(=O)N1CC(Oc2cc3c(Nc4ccc(F)c(Cl)c4F)ncnc3cc2OC)C1 [Example 28, (E)-4-(3-(4-(3-chloro-2,4-difluorophenylamino)-7-methoxyquinazolin-6-yloxy)azetidin-1-yl)-N-methyl-4-oxobut-2-ene amide] | 41 | 262
3 | C#Cc1cccc(Nc2ncnc3cc(OC)c(OC4CCN(C(=O)C=C)CC4)cc23)c1 [Example 37, 1-(4-(4-(3-ethynylphenylamino)-7-methoxyquinazolin-6-yloxy)piperidin-1-yl)pro-2-pen-1-one] | 52 | 79
4 | C=CC(=O)N1CCC(Oc2cc3c(Nc4cc(OC)c(Cl)cc4OC)ncnc3cc2OC)CC1 [Example 38, 1-(4-(4-(4-chloro-2,5-dimethoxyphenylamino)-7-methoxyquinazolin-6-yloxy)piperidin-1-yl)pro-2-pen-1-one] | > 10000 | > 10000
5 | C=CC(=O)N1CCC(Oc2cc3c(Nc4ccc(C(C)C)cc4)ncnc3cc2OC)CC1 [Example 40, 1-(4-(4-(4-isopropylphenylamino)-7-methoxyquinazolin-6-yloxy)piperidin-1-yl)pro-2-pen-1-one] | 23 | 37
6 | C=CC(=O)N1CCC(Oc2cc3c(Nc4ccc(F)c(F)c4F)ncnc3cc2OC)CC1 [Example 45, 1-(4-(7-methoxy-4-(2,3,4-trifluorophenylamino)quinazolin-6-yloxy)piperidin-1-yl)pro-2-pen-1-one] | 43 | 3
7 | C=CC(=O)N1CCC(Oc2cc3c(Nc4ccc(F)c(C)c4)ncnc3cc2OC)CC1 [Example 46, 1-(4-(4-(4-fluoro-3-methylphenylamino)-7-methoxyquinazolin-6-yloxy)piperidin-1-yl)pro-2-pen-1-one] | 8 | 2
8 | C=CC(=O)N1CCC(Oc2cc3c(Nc4ccc5c(c4)CCC5)ncnc3cc2OC)CC1 [Example 49, 1-(4-(4-(2,3-dihydro-1H-inden-5-ylamino)-7-methoxyquinazolin-6-yloxy)piperidin-1-yl)pro-2-pen-1-one] | 29 | 45
9 | C=CC(=O)N1CCC(Oc2cc3c(Nc4cc(Cl)c(O)c(Cl)c4)ncnc3cc2OC)CC1 [Example 50, 1-(4-(4-(3,5-dichloro-4-hydroxyphenylamino)-7-methoxyquinazolin-6-yloxy)piperidin-1-yl)pro-2-pen-1-one] | 179 | 91
10 | C=CC(=O)N1CCC(Oc2cc3c(Nc4ccc(Cl)c(O)c4)ncnc3cc2OC)CC1 [Example 51, 1-(4-(4-(4-chloro-3-hydroxyphenylamino)-7-methoxyquinazolin-6-yloxy)piperidin-1-yl)pro-2-pen-1-one] | 105 | 19
11 | C=CC(=O)N1CCC(Oc2cc3c(Nc4ccc(OCc5cccc(F)c5)c(Cl)c4)ncnc3cc2OC)CC1 [Example 54, 1-(4-(4-(3-chloro-4-(3-fluorobenzyloxy)phenylamino)-7-methoxyquinazolin-6-yloxy)piperidin-1-yl)pro-2-pen-1-one] | 10 | 2
12 | C=CC(=O)N1CCC(Oc2cc3c(Nc4ccc(Cl)c(C)c4)ncnc3cc2OC)CC1 [Example 60, 1-(4-(4-(4-chloro-3-methylphenylamino)-7-methoxyquinazolin-6-yloxy)piperidin-1-yl)pro-2-pen-1-one] | 93 | 261
13 | C=CC(=O)N1CCC(Oc2cc3c(Nc4cccc(Cl)c4C)ncnc3cc2OC)CC1 [Example 63, 1-(4-(4-(3-chloro-2-methylphenylamino)-7-methoxyquinazolin-6-yloxy)piperidin-1-yl)pro-2-pen-1-one] | 9 | 1
14 | C=CC(=O)N1CCC(Oc2cc3c(Nc4cccc(N(C)C)c4)ncnc3cc2OC)CC1 [Example 64, 1-(4-(4-(3-(dimethylamino)phenylamino)-7-methoxyquinazolin-6-yloxy)piperidin-1-yl)pro-2-pen-1-one] | 142 | 11
15 | C=CC(=O)N1CCC(Oc2cc3c(Nc4cccc(SC)c4)ncnc3cc2OC)CC1 [Example 68, 1-(4-(7-methoxy-4-(3-(methylthio)phenylamino)quinazolin-6-yloxy)piperidin-1-yl)pro-2-pen-1-one] | 305 | 10
16 | C=CC(=O)N1CCC(Oc2cc3c(Nc4ccc(Cl)cc4)ncnc3cc2OC)CC1 [Example 70, 1-(4-(4-(4-chlorophenylamino)-7-methoxyquinazolin-6-yloxy)piperidin-1-yl)pro-2-pen-1-one] | 4.6 | 2.1

Continued, values first:

Row | IC50 [1] [nM] | IC50 [2] [nM] | Structure (SMILES)
17 | 699 | 210 | C=CC(=O)NCCOc1cc2c(Nc3ccc(F)c(Cl)c3F)ncnc2cc1OC [Example 21, N-(2-(4-(3-chloro-2,4-difluorophenylamino)-7-methoxyquinazolin-6-yloxy)ethyl)acrylamide]
18 | 29 | 19 | C=C(C)C(=O)N1CC(Oc2cc3c(Nc4ccc(F)c(Cl)c4F)ncnc3cc2OC)C1 [Example 29, 1-(3-(4-(3-chloro-2,4-difluorophenylamino)-7-methoxyquinazolin-6-yloxy)azetidin-1-yl)-2-methylpro-2-pen-1-one]
19 | 1 | 0.6 | COC(=O)/C=C\C(=O)N1CC(Oc2cc3c(Nc4cccc(Cl)c4F)ncnc3cc2OC)C1 [Example 30, (Z)-methyl 4-(3-(4-(3-chloro-2-fluorophenylamino)-7-methoxyquinazolin-6-yloxy)azetidin-1-yl)-4-oxobut-2-enoate]
20 | 44 | 35 | COc1cc2ncnc(Nc3ccc(F)c(Cl)c3F)c2cc1OC1CN(C(=O)/C=C/Cl)C1 [Example 33, (E)-3-chloro-1-(3-(4-(3-chloro-2,4-difluorophenylamino)-7-methoxyquinazolin-6-yloxy)azetidin-1-yl)pro-2-pen-1-one]
21 | 514 | 3 | C=CC(=O)N1CCC(Oc2cc3c(N[C@H](C)c4ccccc4)ncnc3cc2OC)CC1 [Example 35, (R)-1-(4-(7-methoxy-4-(1-phenylethylamino)quinazolin-6-yloxy)piperidin-1-yl)pro-2-pen-1-one]
22 | 19 | 10 | C=CC(=O)N1CCC(Oc2cc3c(Nc4ccc(C)c(C)c4)ncnc3cc2OC)CC1 [Example 47, 1-(4-(4-(3,4-dimethylphenylamino)-7-methoxyquinazolin-6-yloxy)piperidin-1-yl)pro-2-pen-1-one]
23 | > 1000 | 8 | C=CC(=O)N1CCC(Oc2cc3c(Nc4ccc(Oc5ccccc5)cc4)ncnc3cc2OC)CC1 [Example 48, 1-(4-(7-methoxy-4-(4-phenoxyphenylamino)quinazolin-6-yloxy)piperidin-1-yl)pro-2-pen-1-one]
24 | 176 | 30 | C=CC(=O)N1CCC(Oc2cc3c(Nc4ccc(O)cc4Cl)ncnc3cc2OC)CC1 [Example 52, 1-(4-(4-(2-chloro-4-hydroxyphenylamino)-7-methoxyquinazolin-6-yloxy)piperidin-1-yl)pro-2-pen-1-one]
25 | 32 | 21 | C=CC(=O)N1CCC(Oc2cc3c(Nc4ccc(Cl)cc4O)ncnc3cc2OC)CC1 [Example 53, 1-(4-(4-(4-chloro-2-hydroxyphenylamino)-7-methoxyquinazolin-6-yloxy)piperidin-1-yl)pro-2-pen-1-one]
26 | 3.7 | 0.7 | C=CC(=O)N1CCC(Oc2cc3c(Nc4cccc(C#N)c4)ncnc3cc2OC)CC1 [Example 56, 3-(6-(1-acryloylpiperidin-4-yloxy)-7-methoxyquinazolin-4-ylamino)benzonitrile]
27 | 3 | 9 | C=CC(=O)N1CCC(Oc2cc3c(Nc4cccc(Cl)c4OC)ncnc3cc2OC)CC1 [Example 59, 1-(4-(4-(3-chloro-2-methoxyphenylamino)-7-methoxyquinazolin-6-yloxy)piperidin-1-yl)pro-2-pen-1-one]
28 | 7 | 6 | C=CC(=O)N1CCC(Oc2cc3c(Nc4ccc(Br)c(F)c4)ncnc3cc2OC)CC1 [Example 62, 1-(4-(4-(4-bromo-3-fluorophenylamino)-7-methoxyquinazolin-6-yloxy)piperidin-1-yl)pro-2-pen-1-one]
29 | 11 | 15 | C=CC(=O)N1CCC(Oc2cc3c(Nc4cccc(C(F)(F)F)c4F)ncnc3cc2OC)CC1 [Example 65, 1-(4-(4-(2-fluoro-3-(trifluoromethyl)phenylamino)-7-methoxyquinazolin-6-yloxy)piperidin-1-yl)pro-2-pen-1-one]
30 | 8 | 1 | C=CC(=O)N1CCC(Oc2cc3c(Nc4ccc(F)c(C#N)c4)ncnc3cc2OC)CC1 [Example 66, 5-(6-(1-acryloylpiperidin-4-yloxy)-7-methoxyquinazolin-4-ylamino)-2-fluorobenzonitrile]
31 | 35 | 10 | C=CC(=O)N1CCC(Oc2cc3c(Nc4ccc(Cl)c(C#N)c4)ncnc3cc2OC)CC1 [Example 67, 5-(6-(1-acryloylpiperidin-4-yloxy)-7-methoxyquinazolin-4-ylamino)-2-chlorobenzonitrile]
32 | 65 | 1.7 | C=CC(=O)N1CCC(Oc2cc3c(Nc4ccccc4Cl)ncnc3cc2OC)CC1 [Example 69, 1-(4-(4-(2-chlorophenylamino)-7-methoxyquinazolin-6-yloxy)piperidin-1-yl)pro-2-pen-1-one]
33 | 61 | 20 | C=CC(=O)N1CCC(Oc2cc3c(NCc4cccc(Cl)c4)ncnc3cc2OC)CC1 [Example 72, 1-(4-(4-(3-chlorobenzylamino)-7-methoxyquinazolin-6-yloxy)piperidin-1-yl)pro-2-pen-1-one]
34 | 11 | 1 | C=CC(=O)N1CCC(Oc2cc3c(Nc4cccc([N+](=O)[O-])c4)ncnc3cc2OC)CC1 [Example 74, 1-(4-(7-methoxy-4-(3-nitrophenylamino)quinazolin-6-yloxy)piperidin-1-yl)pro-2-pen-1-one]
